“And” between values parts separate entries of the source, which are not always exact repeats. Identical values can stand only once. Like-named read-outs stand apart in the source and are kept apart here.
Tests used:
[1] = Pharmacokinetic and liver analysis of Cy-3 labeled siRNA in LN-siRNA systems; assay type: in vivo
Excerpt: A fluorescently labeled siRNA (Cy-3 labeled luciferase siRNA, Alnylam Pharmaceuticals) was used to measure the siRNA content in plasma and liver after iv administration of LN-siRNA systems. The measurements were done by first extracting the Cy3-siRNA from the protein-containing biological matrix and then analyzing the amount of Cy-3 label in the extract by fluorescence. Two extraction methods were used, a chloroform/methanol mixture for the plasma samples and a commercial phenol/chloroform mixture (Trizol® reagent) with the tissue samples.
For plasma, blood was collected in EDTA-containing Vacutainer tubes and centrifuged at 1000×g for 10 min at 4-8° C. to isolate the plasma. The plasma was transferred to an eppendorf tube and either assayed immediately or stored in a −30° C. freezer. An aliquot of the plasma (100 μL maximum) was diluted to 500 μL with PBS (145 mM NaCl, 10 mM phosphate, pH 7.5), methanol (1.05 mL and chloroform (0.5 mL) was added, and the sample vortexed to obtain a clear, single phase solution. Water (0.5 mL) and chloroform (0.5 mL) was then added and the resulting emulsion sustained by mixing periodically for a minimum of 3 minutes. The mixture was centrifuged at 3000 rpm for 20 minutes and the top aqueous phase containing the Cy-3-label transferred to a new test tube. The fluorescence of the solution was measured using an SLM Fluorimeter at an excitation wavelength of 550 nm (2 nm bandwidth) and emission wavelength of 600 nm (16 nm bandwidth). A standard curve was generated by spiking aliquots of plasma from untreated animals with the Cy-3-siRNA containing formulation (0 to 15 μg/mL), and the sample processed as indicated above.
For liver, sections (400-500 mg) of tissue from saline-perfused animals was accurately weighed and homogenized in 1 mL of Trizol using Fastprep tubes. An aliquot of the homogenate (typically equivalent to 50 mg of tissue) was transferred to an eppendorf tube and additional Trizol added to 1 mL final. Chloroform (0.2 mL) was added, and the solution was mixed and incubated for 2-3 min before being centrifuged for 15 min at 12,000×g. An aliquot (0.5 mL) of the top Cy-3-containing aqueous phase was diluted with 0.5 mL of PBS and the fluorescence of the sample measured as described above.
The correlation between levels of siRNA delivered to the liver and FVII reduction was determined by encapsulating Cy-3 labeled siRNA in the selection of LN-siRNA systems covering a spectrum of in vivo activities shown in Table 8. Cy-3 fluorescence was measured in plasma and liver tissue 0.5 and 3.0 h post injection.

Factor VII (FVII) = conditions: for FVII ED50: Table 11
Excerpt: It is well established that in vivo RNAi silencing of specific hepatocyte proteins can be achieved following intravenous (i.v.) administration of siRNA's encapsulated in, or associated with, select nanoparticles designed for intracellular delivery. […] In this Example, rational design in combination with in vivo screening were applied to systematically modify the structure of DLinDMA and identify molecular features that enhance or reduce cationic lipid potency. More than 30 lipids were synthesized and incorporated into nucleic acid-lipid particles, i.e., lipid nanoparticles (LN) encapsulating an siRNA (LN-siRNA) targeting Factor VII (FVII), a blood clotting component synthesized and secreted by hepatocytes that is readily measured in serum. LN-siRNA systems were prepared using the same process, lipid molar ratios and particle size to minimize effects on activity resulting from formulation characteristics other than the cationic lipid. Each formulation was administered as a single bolus injection over a range of doses enabling an estimate of the siRNA dose required to reduce FVII serum protein concentrations by 50% after 24 h (ED50).
FVII activity was evaluated in FVII siRNA-treated animals at 24 hours after intravenous (bolus) injection in C57BL/6 mice or 48 hours after intravenous (bolus) injection in SD rats. Six to 8 week old, female C57Bl/6 mice were obtained from Charles River Laboratories and acclimated for one week prior to use in studies. Animals were held in a pathogen-free environment and all procedures involving animals were performed in accordance with the guidelines established by the Canadian Council on Animal Care.
LN-siRNA systems containing Factor VII siRNA were diluted to the appropriate concentrations in sterile phosphate buffered saline immediately prior to use, and the formulations were administered intravenously via the lateral tail vein in a total volume of 10 ml/kg. After 24 h, animals were anaesthetised with Ketamine/Xylazine and blood was collected by cardiac puncture and processed to serum (Microtainer Serum Separator Tubes; Becton Dickinson, Franklin Lakes, N.J., USA). Serum was tested immediately or stored at −70° C. for later analysis for serum Factor VII levels.
FVII was measured using a commercially available kit (Biophen FVII Kit™; Aniara Corp., Mason, Ohio), following the manufacturer's instructions at a microplate scale. FVII reduction was determined against untreated control animals, and the results were expressed as % Residual FVII. Five dose levels (0.1, 0.3, 0.5, 1.0, and 3.0 mg/kg) were typically used.
Serum Factor VII levels were determined using the colorimetric Biophen VII assay kit (Anaira, USA). Briefly, serially diluted pooled control serum (200%-3.125%) and appropriately diluted plasma samples from treated animals were analyzed using the Biophen VII kit according to manufacturer's instructions in 96-well, flat bottom, non-binding polystyrene assay plates (Corning, Corning, N.Y.) and absorbance at 405 nm was measured. A calibration curve was generated using the serial diluted control serum and used to determine levels of Factor VII in serum from treated animals.
Initial studies were performed in eight to 10 week old, female C57BL/6 mice in two stages. In the first stage, the activity associated with the benchmark lipid DLinDMA was compared to the activity associated with modified forms of DLinDMA.

[2] = Bilayer-to-hexagonal HII transition temperature (TBH) in equimolar mixtures with DSPS; assay type: physicochemical; conditions: equimolar with DSPS, pH 4.8; 31P NMR and DSC
Excerpt: Both techniques gave similar results.

[3] = In situ determination of apparent pKa using TNS fluorescence titration
Excerpt: In situ pKa measurements were made using the pH sensitive fluorescent probe TNS, using a modification of the approach previously published in Bailey, A. L. and Cullis, P. R., Biochemistry 33:12573-12580 (1994).
Titrations of surface charge as a function of pH can then be used to determine the apparent pKa (hereafter referred to as pKa) of constituent lipids (Cullis, P. R., et al., Chem Phys Lipids 40:127-144 (1986)).

[4] = Tolerability of DLin-K-DMA-containing LN-siRNA systems in mice at extreme doses
Experimental: The tolerability of empty DLin-K-C2-DMA lipid particles (DLin-K-C2-DMA/DSPC/Chol/PEG-C-DOMG (40/10/40/10)) was evaluated by monitoring weight change, cageside observations, clinical chemistry and, in some instances, hematology in femal Sprague Dawley rats and female C57BL/6 mice. Animal weights were recorded prior to treatment and at 24 hours after intravenous treatment with various dosages. Data was recorded as % Change in Body Weight. In addition to body weight measurements, clinical chemistry panel, including liver function markers, was obtained at each dose level at 24 hours post-injection using an aliquot of the serum collected for FVII analysis. […] In some instances, additional animals were included in the treatment group to allow collection of whole blood for hematology analysis.
The toxicity criteria measured were % change in body weight and serum levels of the liver enzyme markers, ALT and AST.

[5] = Table 4, siRNA dose reducing serum FVII protein by 50% at 24 h, PFV LN-siRNA 40/10/40/10
[6] = Table 8, FVII ED50 of the LN-siRNA system
[7] = siRNA dose reducing serum FVII protein by 50% at 24 h, PFV LN-siRNA 40/10/40/10
[8] = Table 6, siRNA dose reducing serum FVII protein by 50% at 24 h, PFV LN-siRNA 40/10/40/10
[9] = Table 7, siRNA dose reducing serum FVII protein by 50% at 24 h, PFV LN-siRNA 40/10/40/10
[10] = siRNA 0-10 mg/kg, total lipid 0-164 mg/kg
[11] = siRNA 46 mg/kg, total lipid 750 mg/kg
[12] = siRNA 61 mg/kg, total lipid 1000 mg/kg
[13] = siRNA 76 mg/kg, total lipid 1250 mg/kg
[14] = siRNA 92 mg/kg, total lipid 1500 mg/kg

1,2-Dilinoleoyl-3-dimethylaminopropane [DLinDAP]
Liver Cy-3 siRNA ([1]; 0.5 h post injection): 20.5 % injected dose | Plasma Cy-3 siRNA ([1]; 0.5 h post injection): 46.6 % injected dose | Liver Cy-3 siRNA ([1]; 3.0 h post injection): 16.5 % injected dose | Plasma Cy-3 siRNA ([1]; 3.0 h post injection): 3.3 % injected dose | ED50 (Factor VII (FVII); [5]): 40 to 50 mg/kg | ED50 (Factor VII (FVII); [6]): 12 to 25 mg/kg | FVII ED50 (Factor VII (FVII)): >25 mg/kg | ED50 (Factor VII (FVII); [7]): 12 to 25 mg/kg | HII transition temperature [2]: 26 °C | Apparent pKa ([3]; in situ in preformed vesicles, TNS fluorescence titration, Table 11): 5.7

CCCCC/C=C\C/C=C\CCCCCCCCC1(CCCCCCCC/C=C\C/C=C\CCCCC)OCC(CCCCN(C)C)O1 (centres unmarked) [DLin-K-C4-DMA, 2,2-Dilinoleyl-4-(4-dimethylaminobutyl)-[1,3]-dioxolane]
ED50 (Factor VII (FVII); [8]): >3 mg/kg | FVII ED50 (Factor VII (FVII)): >3.0 mg/kg | fold less active in vivo than DLin-K-C3-DMA (Factor VII (FVII); mouse, in vivo): more than 5 fold | ED50 (Factor VII (FVII); [7]): > 3 mg/kg | HII transition temperature [2]: 18 °C | pKa [3]: 6.8

CCCCC/C=C\C/C=C\CCCCCCCCC1(CCCCCCCC/C=C\C/C=C\CCCCC)OCC(CN2CCN(C)CC2)O1 (centres unmarked) [DLin-K-MPZ, 2,2-Dilinoleyl-4-N-methylpepiazino-[1,3]-dioxolane]
ED50 (Factor VII (FVII); [8]): ~1.5 mg/kg | FVII ED50 (Factor VII (FVII)): ~1.5 mg/kg | fold less active than DLin-K-DMA (Factor VII (FVII); mouse FVII model): approximately 5 fold | ED50 (Factor VII (FVII); [7]): ~1.5 mg/kg | pKa [3]: 6.2

CCCCC/C=C\C/C=C\CCCCCCCCC1(CCCCCCCC/C=C\C/C=C\CCCCC)OCC(CN(C)C)CO1 [DLin-K6-DMA, 2,2-dilinoleyl-5-dimethylaminomethyl-[1,3]-dioxane]
ED50 (Factor VII (FVII); [9]): ~0.3 mg/kg | FVII ED50 (Factor VII (FVII)): ~0.3 mg/kg | pKa [3]: 6.2

CCCCC/C=C\C/C=C\CCCCCCCCC1(CCCCCCCC/C=C\C/C=C\CCCCC)OCC(CN(C)C)O1 (racemic) [DLin-K-DMA, 2,2-Dilinoleyl-4-dimethylaminomethyl-[1,3]-dioxolane]
ED50 (Factor VII (FVII); [5]): ~0.4 mg/kg | ED50 (Factor VII (FVII); [8]): ~0.4 mg/kg | ED50 (Factor VII (FVII); [9]): ~1 mg/kg | ED50 (Factor VII (FVII); [6]): 0.3 mg/kg | FVII ED50 (Factor VII (FVII)): ~0.4 mg/kg | FVII ED50 (Factor VII (FVII); listed as DLin-K-DMA (racemic mixture)): ~0.3 mg/kg | fold more potent than the DLinDMA benchmark (Factor VII (FVII); reducing serum FVII protein, mouse, head-to-head): ~2.5 fold | ED50 (Factor VII (FVII); [7]): ~0.4 mg/kg | ED50 (Factor VII (FVII); siRNA dose reducing serum FVII protein by 50% at 24 h, PFV LN-siRNA 40/10/40/10, listed as DLin-K-DMA racemic mixture): ~0.3 mg/kg | HII transition temperature [2]: 19 °C | pKa [3]: 5.6 | siRNA dose up to which no changes in blood chemistry or body weight were observed ([4]; compared to saline controls, mice): 10 mg/kg | body weight lost ([4]; maximum dose 92 mg siRNA/kg, 1500 mg total lipid/kg): 6% | siRNA dose exceeded before severe (>10-fold) ALT/AST increases are observed ([4]; mice): exceeded 61 mg/kg | % Change Body Weight [4, 10]: 0% | ALT [4, 10]: 45 IU/L | AST [4, 10]: 90 IU/L | % Change Body Weight [4, 11]: −5.0% | ALT [4, 11]: 174 IU/L | AST [4, 11]: 340 IU/L | increases in serum ALT and AST [4, 11]: < 10 fold normal | % Change Body Weight [4, 12]: −4.5% | ALT [4, 12]: 448 IU/L | AST [4, 12]: 816 IU/L | % Change Body Weight [4, 13]: −5.5% | ALT [4, 13]: 1771 IU/L | AST [4, 13]: 4723 IU/L | % Change Body Weight [4, 14]: −6.0% | ALT [4, 14]: 4723 IU/L | AST [4, 14]: 2094 IU/L | fold greater than the ED50 dose ([4]; siRNA dose of 10 mg/kg without changes): > 30 fold | fold more than the ED50 ([4]; siRNA dose of 46 mg/kg, first significant toxicity signs): 150 fold

CCCCC/C=C\C/C=C\CCCCCCCCOCC(CN(C)C)OCCCCCCCC/C=C\C/C=C\CCCCC (centres unmarked) [DLinDMA, 1,2-Dilinoleyloxy-3-dimethylaminopropane, reference compound]
ED50 (Factor VII (FVII); Table 3, siRNA dose reducing serum FVII protein by 50% at 24 h, single i.v. bolus, PFV LN-siRNA 40/10/40/10): ~1 mg/kg | ED50 (Factor VII (FVII); [5]): ~1 mg/kg | ED50 (Factor VII (FVII); Table 5, siRNA dose reducing serum FVII protein by 50% at 24 h, PFV LN-siRNA 40/10/40/10): ~1 mg/kg | ED50 (Factor VII (FVII); [6]): 1.0 mg/kg | FVII ED50 (Factor VII (FVII)): ~1.0 mg/kg | ED50 (Factor VII (FVII); [7]): ~1.0 mg/kg and 1 mg/kg | HII transition temperature [2]: 27 °C | pKa [3]: 6.4 | molecules charged ([3]; at pH 7.4): 5-10% | pKa ([3]; nucleic acid-lipid particles containing the cationic lipid): 6.4

CCCCC/C=C\C/C=C\CCCCCCCCC1(CCCCCCCC/C=C\C/C=C\CCCCC)OCC(CCCN(C)C)O1 (centres unmarked) [DLin-K-C3-DMA, 2,2-Dilinoleyl-4-(3-dimethylaminopropyl)-[1,3]-dioxolane]
ED50 (Factor VII (FVII); [8]): ~0.6 mg/kg | FVII ED50 (Factor VII (FVII)): ~0.6 mg/kg | ED50 (Factor VII (FVII); [7]): ~0.6 mg/kg | HII transition temperature [2]: 18 °C | pKa [3]: 6.8

Reference: US10653780B2, “Amino lipids and methods for the delivery of nucleic acids” (ARBUTUS BIOPHARMA CORPORATION, priority 2008, dated 2020)
